Test results taken from US12281329B2, “Compositions and methods for immune cell modulation in adoptive immunotherapies” (Fate Therapeutics, Inc., priority 2016, dated 2025).

Legend:
K562 cells = experiment: NK cell cytotoxicity assay, K562 target cells; format: cell-based; conditions: 4 hours
Protocol: (§1) NK Cell Cytotoxicity Assay: Cytotoxicity was determined using a flow cytometry based method based on a previously published method (Kim, et al. J Immunol Methods. 2007 Aug. 31; 325(1-2): 51-66). NK cells were co-cultured with e450-proliferation dye-labelled targets for 4 hours. CellEvent™ Caspase-3/7 Green Flow Cytometry Assay Kit (Lifer Technologies) was used to assay for cell death among target cells, and samples were read on a BD LSRFortessa cytometer. Killing of SKOV-3 targets was quantified using the Incucyte Zoom instrument. SKOV-3 cells were transiently transduced with NucLight-Red BacMam reagent (Essen Biosciences) and co-cultured with the indicated NK cell populations for 74 hours, with images taken on two hour intervals. Caspase 3/7 activity was monitored to indicate target cells undergoing apoptosis using the CellEvent™ Caspase-3/7 Green Detection Reagent. The number of target cells was normalized to SKOV-3 cells cultured alone, and targets undergoing apoptosis were quantified based on caspase 3/7 activity.
The ability of GSK3 inhibition to enhance cytotoxicity of NK cells isolated directly from donors was assessed using in vitro killing assays. […] depleted PBMC population was treated overnight with 10 ng/mL IL-15 only (primed), or a 7 day culture combination of 10 ng/mL IL-15 and 5 μM CHIR99021. The target cells for the killing assays included K562 cells, CD20+ Raji cells, HER2+ SKOV3 cells and HER2+A549 cells. The E:T (Effector:Target) ratio applied to each assay ranged from 0.1, 0.5, 1, 5 to 10. After the target cells were incubated with the differently treated NK cells for 4 hours, the respective percentage of specific killing (target cell lysis) was calculated. […] Raji cells are less prone to NK mediated cytotoxicity.
(§2) The ability of STING agonist to enhance cytotoxicity of GSK3i multiday modulated NK cells was assessed using in vitro killing assays. […]

Nalm6 cells = experiment: NK cell cytotoxicity assay, Nalm6 target cells; format: cell-based, human; conditions: 1 μM STING agonist added to 7 day 10 ng/mL IL-15 + 5 μM CHIR99021 culture; 4 hours
Protocol: as §1, §2

KG-1 cells = experiment: NK cell cytotoxicity assay, KG-1 target cells; format: cell-based, human; conditions: 1 μM STING agonist added to 7 day 10 ng/mL IL-15 + 5 μM CHIR99021 culture; 4 hours
Protocol: as §1, §2

NK cells = experiment: 7 day NK culture with IL15, GSK3i and/or STING agonist: phenotype by flow cytometry; format: cell-based, human
Protocol: CD3/CD19 depleted PBMC were cultured for 7 days in the presence of 10 ng/ml IL15 and (1) DMSO (vehicle); (2) […] GSK3i (CHIR99021); (3) 1 μM STING agonist (ML RR-S2 CDA); or (4) […] GSK3i+1 μM STING agonist. On day 7, NK cell function and phenotype was assessed by intracellular cytokine staining, cytotoxicity assays, and flow cytometry. […] The frequency of CD107a+ NK cells after incubation with K562 cells was increased for cells cultured for 7 days with IL-15+GSK3i+STING agonist compared to cells cultured with IL-15+GSK3i only (FIG. 16C). Increased cell surface CD107a expression is associated with enhanced degranulation and cytotoxic potential of NK cells in the presence of STING agonist in combination with GSK3i.
Natural Killer (NK) cells recognize and destroy tumors and virus-infected cells in an antibody-independent manner. The regulation of NK cells is mediated by activating and inhibiting receptors on the NK cell surface. One important family of activating receptors is the natural cytotoxicity receptors (NCRs) which include NKp30, NKp44 and NKp46. The NCRs initiate tumor targeting by recognition of their specific ligands on cancer cells.

CD20+ Raji cells = experiment: NK cell cytotoxicity assay, Raji target cells; format: cell-based, human; conditions: 4 hours; NK cells overnight IL-15 only or 7 days IL15 + GSK3i
Protocol: as §1
The ability of GSK3 inhibition to enhance cytotoxicity of NK cells isolated directly from donors was assessed using in vitro killing assays. […] After the target cells were incubated with the differently treated NK cells for 4 hours, the respective percentage of specific killing (target cell lysis) was calculated. […]

Compound | cytotoxicity (specific killing) against K562 cells (K562 cells; 1 μM STING agonist added to 7 day 10 ng/mL IL-15 + 5 μM CHIR99021 culture) | cytotoxicity (specific killing) against Nalm6 cells (Nalm6 cells) | cytotoxicity (specific killing) against KG-1 cells (KG-1 cells) | effect on adaptive NK phenotype and total NK number (NK cells; 7 days, 10 ng/ml IL15, 1 μM STING agonist) | total CD57+NK number (NK cells; FIG. 15A) | CD57+NKG2C+NK phenotype (NK cells; FIG. 15B) | E:T50 (E:T ratio when there is 50% of target cell lysis), K562 killing assay (K562 cells; NK cells overnight 10 ng/mL IL-15 only or 7 day IL-15 + 5 μM CHIR99021) | E:T50, Raji cells (CD20+ Raji cells)
Nc1ncnc2c1ncn2[C@@H]1O[C@@H]2COP(O)(=S)O[C@@H]3C(O)[C@@H](COP(O)(=S)O[C@H]2[C@H]1O)O[C@H]3n1cnc2c(N)ncnc21 (some centres unmarked) [ML RR-S2 CDA] | enhanced | enhanced | enhanced | limited effect | limited effect | limited effect | – | –
IL15: recombinant human IL-15, cytokine used alone as comparator culture (10 ng/mL) | – | – | – | – | – | – | about 10 | ~100
